Measurements as given in PMC5218480 (PLoS ONE, 2017).

Tested on: MV-4-11 cells
Test: Gene expression microarray analysis (Affymetrix PrimeView) and GSEA
Assay type: cell-based, human
Design: RFU PODN (11730768_x_at) / Fold change /veh PODN (11730768_x_at) / RFU LINC00158 (11744669_a_at) / Fold change /veh LINC00158 (11744669_a_at) / RFU DUSP10 (11751237_a_at) / Fold change /veh DUSP10 (11751237_a_at) / RFU ID3 (11757404_x_at) / Fold change /veh ID3 (11757404_x_at) / RFU PLEKHG5 (11737974_s_at) / Fold change /veh PLEKHG5 (11737974_s_at) / RFU LRRC4B (11730491_at) / Fold change /veh LRRC4B (11730491_at) / RFU GIMAP4 (11747438_a_at) / Fold change /veh GIMAP4 (11747438_a_at) / RFU KRT8 (11758183_x_at) / Fold change /veh KRT8 (11758183_x_at) / RFU CNN1 (11734310_a_at) / Fold change /veh CNN1 (11734310_a_at) / RFU VPS37D (11726825_at) / Fold change /veh VPS37D (11726825_at) / RFU C10orf10 (11716522_x_at) / Fold change /veh C10orf10 (11716522_x_at) / RFU KIR2DL2 /// KIR2DL4 /// KIR2DL5A /// KIR2DL5B /// KIR2DS1 /// KIR2DS2 /// KIR2DS3 /// KIR2DS4 /// KIR3DL3 /// KIR3DL3 /// KIR3DS1 (11738374_at) / Fold change /veh KIR2DL2 /// KIR2DL4 /// KIR2DL5A /// KIR2DL5B /// KIR2DS1 /// KIR2DS2 /// KIR2DS3 /// KIR2DS4 /// KIR3DL3 /// KIR3DL3 /// KIR3DS1 (11738374_at) / RFU C1QL1 (11718748_at) / Fold change /veh C1QL1 (11718748_at) / RFU TMPRSS4 (11747572_a_at) / Fold change /veh TMPRSS4 (11747572_a_at) / RFU HAMP (11756126_x_at) / Fold change /veh HAMP (11756126_x_at) / RFU RNFT2 (11725882_a_at) / Fold change /veh RNFT2 (11725882_a_at) / RFU NR4A2 (11747474_a_at) / Fold change /veh NR4A2 (11747474_a_at) / RFU ABCC12 (11746883_a_at) / Fold change /veh ABCC12 (11746883_a_at) / RFU TMEM136 (11760407_x_at) / Fold change /veh TMEM136 (11760407_x_at) / RFU CLDN22 /// WWC2 (11732394_at) / Fold change /veh CLDN22 /// WWC2 (11732394_at) / RFU HLA-DPB1 (11760878_x_at) / Fold change /veh HLA-DPB1 (11760878_x_at) / RFU SPINT1 (11716480_a_at) / Fold change /veh SPINT1 (11716480_a_at) / RFU GAP43 (11754022_s_at) / Fold change /veh GAP43 (11754022_s_at) / RFU A4GNT (11735810_at) / Fold change /veh A4GNT (11735810_at) / RFU PRB3 (11715151_x_at) / Fold change /veh PRB3 (11715151_x_at) / RFU TUBB4B (11761932_at) / Fold change /veh TUBB4B (11761932_at) / RFU CAPN14 (11732068_a_at) / Fold change /veh CAPN14 (11732068_a_at) / RFU TMCC2 (11721928_a_at) / Fold change /veh TMCC2 (11721928_a_at) / RFU IRGQ (11745062_a_at) / Fold change /veh IRGQ (11745062_a_at) / RFU FAM174B (11720279_a_at) / Fold change /veh FAM174B (11720279_a_at) / RFU TMPRSS4 (11748680_a_at) / Fold change /veh TMPRSS4 (11748680_a_at) / RFU FAM212B (11763350_a_at) / Fold change /veh FAM212B (11763350_a_at) / RFU PLEKHG5 (11743358_a_at) / Fold change /veh PLEKHG5 (11743358_a_at) / RFU ZSCAN30 (11745921_a_at) / Fold change /veh ZSCAN30 (11745921_a_at) / RFU CMKLR1 (11741424_a_at) / Fold change /veh CMKLR1 (11741424_a_at) / RFU LOC101060620 /// MAPK8IP1 (11723275_at) / Fold change /veh LOC101060620 /// MAPK8IP1 (11723275_at) / RFU SPTSSB (11747773_x_at) / Fold change /veh SPTSSB (11747773_x_at) / RFU PRSS12 (11739890_at) / Fold change /veh PRSS12 (11739890_at) / RFU BIN1 (11741810_x_at) / Fold change /veh BIN1 (11741810_x_at) / RFU WNT11 (11732464_a_at) / Fold change /veh WNT11 (11732464_a_at) / RFU C10orf10 (11716521_a_at) / Fold change /veh C10orf10 (11716521_a_at) / RFU C5orf56 (11738089_at) / Fold change /veh C5orf56 (11738089_at) / RFU CYB561 (11721691_x_at) / Fold change /veh CYB561 (11721691_x_at) / RFU ANKRD19P (11752326_a_at) / Fold change /veh ANKRD19P (11752326_a_at) / RFU OR2T12 /// OR2T33 /// OR2T8 (11738714_s_at) / Fold change /veh OR2T12 /// OR2T33 /// OR2T8 (11738714_s_at) / RFU VCAN (11748164_a_at) / Fold change /veh VCAN (11748164_a_at) / RFU JSRP1 (11732532_at) / Fold change /veh JSRP1 (11732532_at) / RFU KRTAP10-11 (11738290_x_at) / Fold change /veh KRTAP10-11 (11738290_x_at) / RFU MYO3A (11730013_a_at) / Fold change /veh MYO3A (11730013_a_at) / RFU EBF3 (11725865_a_at) / Fold change /veh EBF3 (11725865_a_at) / RFU CAMK2N1 (11719241_x_at) / Fold change /veh CAMK2N1 (11719241_x_at) / RFU C5orf56 (11738088_a_at) / Fold change /veh C5orf56 (11738088_a_at) / RFU OLFML3 (11715873_a_at) / Fold change /veh OLFML3 (11715873_a_at) / RFU LOC100653217 /// NTM (11731650_a_at) / Fold change /veh LOC100653217 /// NTM (11731650_a_at) / RFU MAPK11 (11762145_a_at) / Fold change /veh MAPK11 (11762145_a_at) / RFU FIZ1 (11724087_x_at) / Fold change /veh FIZ1 (11724087_x_at) / RFU OASL (11726364_x_at) / Fold change /veh OASL (11726364_x_at) / RFU SOX15 (11748057_x_at) / Fold change /veh SOX15 (11748057_x_at) / RFU CD79A (11719716_a_at) / Fold change /veh CD79A (11719716_a_at) / RFU HIST1H1D (11736915_at) / Fold change /veh HIST1H1D (11736915_at) / RFU CASKIN2 (11723855_a_at) / Fold change /veh CASKIN2 (11723855_a_at) / RFU LOC730098 (11760151_x_at) / Fold change /veh LOC730098 (11760151_x_at) / RFU OR4N2 (11742367_at) / Fold change /veh OR4N2 (11742367_at) / RFU PRRT2 (11749266_a_at) / Fold change /veh PRRT2 (11749266_a_at) / RFU SNX32 (11753110_a_at) / Fold change /veh SNX32 (11753110_a_at) / RFU CDHR5 (11726645_a_at) / Fold change /veh CDHR5 (11726645_a_at) / RFU RCAN1 (11760418_a_at) / Fold change /veh RCAN1 (11760418_a_at) / RFU FAM167A (11723789_a_at) / Fold change /veh FAM167A (11723789_a_at) / RFU FAM26E (11764081_at) / Fold change /veh FAM26E (11764081_at) / RFU ISYNA1 (11749810_s_at) / Fold change /veh ISYNA1 (11749810_s_at) / RFU ACY1 (11761880_at) / Fold change /veh ACY1 (11761880_at) / RFU 11764098_at / Fold change /veh 11764098_at / RFU SAMD14 (11745864_x_at) / Fold change /veh SAMD14 (11745864_x_at) / RFU NPB (11741838_a_at) / Fold change /veh NPB (11741838_a_at) / RFU TMPRSS6 (11731388_a_at) / Fold change /veh TMPRSS6 (11731388_a_at) / RFU KRTAP10-2 (11738614_at) / Fold change /veh KRTAP10-2 (11738614_at) / RFU ARHGAP8 /// PRR5-ARHGAP8 (11727945_x_at) / Fold change /veh ARHGAP8 /// PRR5-ARHGAP8 (11727945_x_at) / RFU KRTAP5-7 /// NADSYN1 (11734609_at) / Fold change /veh KRTAP5-7 /// NADSYN1 (11734609_at) / RFU RASL12 (11751679_a_at) / Fold change /veh RASL12 (11751679_a_at) / RFU CDKN2B (11736163_a_at) / Fold change /veh CDKN2B (11736163_a_at) / RFU PRF1 (11729649_at) / Fold change /veh PRF1 (11729649_at) / RFU, ZNF638 /// ZNF638-IT1 / Fold change vs veh, ZNF638 /// ZNF638-IT1 / RFU, PANK3 / Fold change vs veh, PANK3 / RFU, SH3YL1 / Fold change vs veh, SH3YL1 / RFU, ZEB2 / Fold change vs veh, ZEB2 / RFU, NRIP1 / Fold change vs veh, NRIP1 / RFU, PTTG1IP / Fold change vs veh, PTTG1IP / RFU, CAPN2 / Fold change vs veh, CAPN2 / RFU, MED14 / Fold change vs veh, MED14 / RFU, SNORA58 / Fold change vs veh, SNORA58 / RFU, C1orf63 / Fold change vs veh, C1orf63 / RFU, LRRFIP1 / Fold change vs veh, LRRFIP1 / RFU, NDUFAF7 / Fold change vs veh, NDUFAF7 / RFU, SLC12A2 / Fold change vs veh, SLC12A2 / RFU, IBTK / Fold change vs veh, IBTK / RFU, ESF1 / Fold change vs veh, ESF1 / Fold change vs veh, TMEM50B / RFU, TAOK1 / Fold change vs veh, TAOK1 / RFU, ACBD3 / Fold change vs veh, ACBD3 / RFU, TMA16 / Fold change vs veh, TMA16 / RFU, RWDD3 / Fold change vs veh, RWDD3 / RFU, BCAT1 / Fold change vs veh, BCAT1 / RFU, EDEM3 / Fold change vs veh, EDEM3 / RFU, TMEM33 / Fold change vs veh, TMEM33 / RFU, WDR75 / Fold change vs veh, WDR75 / RFU, AHCTF1 / Fold change vs veh, AHCTF1 / RFU, TFRC / Fold change vs veh, TFRC / RFU, ZDHHC17 / Fold change vs veh, ZDHHC17 / RFU, NOM1 / Fold change vs veh, NOM1 / RFU, ARL8B / Fold change vs veh, ARL8B / RFU, ZBTB11 / Fold change vs veh, ZBTB11 / RFU, TAMM41 / Fold change vs veh, TAMM41 / RFU, KIAA1704 /// LOC100996395 / Fold change vs veh, KIAA1704 /// LOC100996395 / RFU, ING1 / Fold change vs veh, ING1 / RFU, TRMT61B / Fold change vs veh, TRMT61B / RFU, FUBP3 / Fold change vs veh, FUBP3 / RFU, TP53 / Fold change vs veh, TP53 / RFU, TNKS2 / Fold change vs veh, TNKS2 / RFU, ZFP14 / Fold change vs veh, ZFP14 / RFU, ACTR2 / Fold change vs veh, ACTR2 / RFU, PPP3R1 / Fold change vs veh, PPP3R1 / RFU, PIK3R1 / Fold change vs veh, PIK3R1 / RFU, HNRNPA1 / Fold change vs veh, HNRNPA1 / RFU, RNF170 / Fold change vs veh, RNF170 / RFU, ZNF28 / Fold change vs veh, ZNF28 / RFU, RNGTT / Fold change vs veh, RNGTT / RFU, OGT / Fold change vs veh, OGT / RFU, BRD1 / Fold change vs veh, BRD1 / RFU, MARS / Fold change vs veh, MARS / RFU, ZNF655 / Fold change vs veh, ZNF655 / RFU, FAHD1 / Fold change vs veh, FAHD1 / RFU, BDP1 / Fold change vs veh, BDP1 / RFU, LRRCC1 / Fold change vs veh, LRRCC1 / RFU, ARID1A / Fold change vs veh, ARID1A / RFU, ZNF146 / Fold change vs veh, ZNF146 / RFU, ZNF330 / Fold change vs veh, ZNF330 / RFU, GPN3 / Fold change vs veh, GPN3 / RFU, C9orf123 / Fold change vs veh, C9orf123 / RFU, N4BP2L2 / Fold change vs veh, N4BP2L2 / RFU, ARFIP1 / Fold change vs veh, ARFIP1 / RFU, FAM179B / Fold change vs veh, FAM179B / RFU, BCL10 / Fold change vs veh, BCL10 / RFU, UHRF1BP1L / Fold change vs veh, UHRF1BP1L / RFU, BET1 / Fold change vs veh, BET1 / RFU, CNOT2 / Fold change vs veh, CNOT2 / RFU, ZNF268 / Fold change vs veh, ZNF268 / Fold change vs veh, ZNF507 / RFU, DGCR2 / Fold change vs veh, DGCR2 / RFU, WDSUB1 / Fold change vs veh, WDSUB1 / Fold change vs veh, HSP90B1 /// MIR3652 / RFU, ADSS / Fold change vs veh, ADSS / RFU, GK / Fold change vs veh, GK / RFU, ZNF148 / Fold change vs veh, ZNF148 / RFU, TAF9 / Fold change vs veh, TAF9 / RFU, SLC1A5 / Fold change vs veh, SLC1A5 / RFU, SLMO2 / Fold change vs veh, SLMO2 / RFU, ABCC4 / Fold change vs veh, ABCC4 / RFU, LOC101060439 /// RAP1B / Fold change vs veh, LOC101060439 /// RAP1B / RFU, RFX7 / Fold change vs veh, RFX7 / RFU, GTPBP10 / Fold change vs veh, GTPBP10 / RFU, CNEP1R1 / Fold change vs veh, CNEP1R1 / RFU, BIVM-ERCC5 /// ERCC5 / Fold change vs veh, BIVM-ERCC5 /// ERCC5 / RFU, ILF3 / Fold change vs veh, ILF3 / RFU 11762660_at / Fold change /veh 11762660_at / RFU VCAN (11757783_s_at) / Fold change /veh VCAN (11757783_s_at) / RFU DDX43 (11728927_at) / Fold change /veh DDX43 (11728927_at) / RFU KRT8 (11758188_x_at) / Fold change /veh KRT8 (11758188_x_at) / RFU NKD1 (11759106_at) / Fold change /veh NKD1 (11759106_at) / RFU SRD5A1 (11742802_a_at) / Fold change /veh SRD5A1 (11742802_a_at) / RFU TPSAB1 /// TPSB2 (11721975_s_at) / Fold change /veh TPSAB1 /// TPSB2 (11721975_s_at) / RFU GSTM3 (11746129_a_at) / Fold change /veh GSTM3 (11746129_a_at) / RFU IL23R (11737362_x_at) / Fold change /veh IL23R (11737362_x_at) / RFU TMEM51 (11727254_a_at) / Fold change /veh TMEM51 (11727254_a_at) / RFU PIWIL2 (11732686_x_at) / Fold change /veh PIWIL2 (11732686_x_at) / RFU ORM1 (11744905_x_at) / Fold change /veh ORM1 (11744905_x_at) / RFU CCDC152 (11743942_at) / Fold change /veh CCDC152 (11743942_at) / RFU ECM1 (11717891_a_at) / Fold change /veh ECM1 (11717891_a_at) / RFU IL23R (11748794_a_at) / Fold change /veh IL23R (11748794_a_at) / RFU TNFAIP8L3 (11732012_x_at) / Fold change /veh TNFAIP8L3 (11732012_x_at) / RFU MBOAT4 (11741988_at) / Fold change /veh MBOAT4 (11741988_at) / RFU 11764193_at / Fold change /veh 11764193_at / RFU TMEM53 (11763286_at) / Fold change /veh TMEM53 (11763286_at) / RFU MAGEB2 (11727129_at) / Fold change /veh MAGEB2 (11727129_at) / RFU TMEM200A (11744735_a_at) / Fold change /veh TMEM200A (11744735_a_at) / RFU CCDC152 (11751479_a_at) / Fold change /veh CCDC152 (11751479_a_at) / RFU FAM211A (11726209_a_at) / Fold change /veh FAM211A (11726209_a_at) / RFU RGS16 (11746705_a_at) / Fold change /veh RGS16 (11746705_a_at) / RFU VCAN (11755009_s_at) / Fold change /veh VCAN (11755009_s_at) / RFU RHOB (11743442_s_at) / Fold change /veh RHOB (11743442_s_at) / RFU RGS16 (11720943_a_at) / Fold change /veh RGS16 (11720943_a_at) / RFU RGS16 (11720944_at) / Fold change /veh RGS16 (11720944_at) / RFU, VPS4B / Fold change vs veh, VPS4B / RFU, CREB1 / Fold change vs veh, CREB1 / RFU, DNAJC13 / Fold change vs veh, DNAJC13 / RFU, GNAQ / Fold change vs veh, GNAQ / RFU, CDK5R1 / Fold change vs veh, CDK5R1 / RFU, ZRANB3 / Fold change vs veh, ZRANB3 / RFU, CUL4A / Fold change vs veh, CUL4A / RFU, CCNY / Fold change vs veh, CCNY / RFU, UFL1 / Fold change vs veh, UFL1 / RFU, COG3 / Fold change vs veh, COG3 / RFU, DIAPH2 / Fold change vs veh, DIAPH2 / RFU, SKA2 / Fold change vs veh, SKA2 / RFU, AFF3 / Fold change vs veh, AFF3 / RFU, LMF1 / Fold change vs veh, LMF1 / RFU, IPO11 / Fold change vs veh, IPO11 / RFU, DFFB / Fold change vs veh, DFFB / RFU, FOXP1 / Fold change vs veh, FOXP1 / RFU, CARD8 / Fold change vs veh, CARD8 / RFU, STRN3 / Fold change vs veh, STRN3 / RFU, ADK / Fold change vs veh, ADK / RFU, RASSF2 / Fold change vs veh, RASSF2 / RFU, WIPF1 / Fold change vs veh, WIPF1 / RFU, LARP1B / Fold change vs veh, LARP1B / RFU, RASA1 / Fold change vs veh, RASA1 / RFU, RB1 / Fold change vs veh, RB1 / RFU, PPFIA1 / Fold change vs veh, PPFIA1 / RFU, MAT2A / Fold change vs veh, MAT2A / RFU, CCT5 / Fold change vs veh, CCT5 / RFU, WDR92 / Fold change vs veh, WDR92 / RFU, CUX1 / Fold change vs veh, CUX1 / RFU, TTC7A / Fold change vs veh, TTC7A / RFU, TMEM135 / Fold change vs veh, TMEM135 / RFU, DEPTOR / Fold change vs veh, DEPTOR / RFU, CPM / Fold change vs veh, CPM / RFU, DNAJB6 / Fold change vs veh, DNAJB6 / RFU, CACNA2D3 / Fold change vs veh, CACNA2D3 / RFU, DTX4 / Fold change vs veh, DTX4 / RFU, TFCP2 / Fold change vs veh, TFCP2 / RFU, GMCL1 /// GMCL1P1 / Fold change vs veh, GMCL1 /// GMCL1P1 / RFU, AEBP2 / Fold change vs veh, AEBP2 / RFU, SNHG1 /// SNORD22 /// SNORD25 /// SNORD26 /// SNORD27 /// SNORD28 /// SNORD29 /// SNORD31 / Fold change vs veh, SNHG1 /// SNORD22 /// SNORD25 /// SNORD26 /// SNORD27 /// SNORD28 /// SNORD29 /// SNORD31 / Fold change (Aza/veh), C12orf56 (ProbeSet 11735607_a_at) / Fold change (ACY-1035/veh), C12orf56 (ProbeSet 11735607_a_at) / Fold change (Aza/veh), FGFR1OP (ProbeSet 11751329_s_at) / Fold change (ACY-1035/veh), FGFR1OP (ProbeSet 11751329_s_at) / Fold change (Aza/veh), VPS36 (ProbeSet 11739960_a_at) / Fold change (ACY-1035/veh), VPS36 (ProbeSet 11739960_a_at) / RFU SYPL1 (11715823_x_at) / Fold change /veh SYPL1 (11715823_x_at) / RFU IGFBP7 (11715501_s_at) / Fold change /veh IGFBP7 (11715501_s_at) / RFU REEP3 (11722064_at) / Fold change /veh REEP3 (11722064_at) / RFU IGLL1 (11728026_x_at) / Fold change /veh IGLL1 (11728026_x_at): dose or concentration left out as unconfirmed
Conditions: MV-4-11 cells, 48 hours

Nc1ccc(-c2cccs2)cc1NC(=O)c1ccc2c(c1)cc(C1CC1)n2CCN1CCOCC1 [ACY-1035]
RFU GIMAP4 (11747438_a_at): 6.21 RFU
